Assays:
[1] = target: T1, Thromboxane A2 (TxA2) Synthetase (Homo sapiens, UniProt P24557); assay: Thromboxane A2 (TxA2) synthetase inhibition in vitro (isometric tension of rabbit aorta spirals); assay type: biochemical; conditions: Indomethacin pretreated human platelet microsomes; PGH2 substrate, 2 min, 0° C; 5 min pre-incubation; read-out: Molar concentration causing 50% inhibition of TxA2 Synthetase
T1 construct: Indomethacin pretreated human platelet microsomes; from tissue; host or cells: human platelets (microsomes)
T1 sequence (P24557 1-533): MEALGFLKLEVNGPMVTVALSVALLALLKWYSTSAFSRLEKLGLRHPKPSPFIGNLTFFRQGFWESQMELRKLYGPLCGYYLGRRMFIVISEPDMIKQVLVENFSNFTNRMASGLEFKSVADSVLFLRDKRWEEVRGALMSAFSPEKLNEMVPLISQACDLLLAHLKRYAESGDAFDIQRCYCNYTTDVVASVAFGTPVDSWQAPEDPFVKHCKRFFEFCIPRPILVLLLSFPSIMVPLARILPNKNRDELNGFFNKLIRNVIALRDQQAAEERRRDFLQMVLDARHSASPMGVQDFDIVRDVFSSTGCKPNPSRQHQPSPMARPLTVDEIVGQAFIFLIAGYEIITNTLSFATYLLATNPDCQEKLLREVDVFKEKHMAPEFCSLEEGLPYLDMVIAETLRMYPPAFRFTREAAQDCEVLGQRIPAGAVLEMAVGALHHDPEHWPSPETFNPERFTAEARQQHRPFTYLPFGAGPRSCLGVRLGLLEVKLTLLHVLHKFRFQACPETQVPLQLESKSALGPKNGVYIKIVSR
Experimental: (§1) The effect of the compounds of the formula (I) on the thromboxane synthetase enzyme, and the prostacyclin synthetase and cyclo-oxygenase enzyme has been measured by the following in vitro enzyme assays:
3. Thromboxane A2 (TxA2) Synthetase
Indomethacin pretreated human platelet microsomes (Science 1976, 193, 163) are incubated (2 min.: 0° C.) with PGH2 (produced as in 1) and aliquots of the reaction mixture superfused over two rabbit aorta spirals which are separated by a delay coil (2 min.). The latter is required to allow the selective decay of the more unstable thromboxane A2 (Proc. Nat. Acad. Sci., 1975, 72, 2994) thereby enabling the separate measurement of increased isometric tension due to the TxA2 formed and the PGH2 remaining. The test compound is pre-incubated with the enzyme for 5 minutes, and its ability to inhibit the thromboxane synthetase enzyme is measured as its reduction of the TxA2 component of the isometric tension.
(§2) The results of these tests are shown in the following Table, which gives the molar concentration of each compound which caused a 50% change in the effect of the relevant enzyme on isometric tension, i.e. caused a 50% inhibition of the action of that enzyme.

[2] = target: T2, Prostacyclin (PGI2) Synthetase (Sus scrofa, UniProt A0A5G2QT35); assay: Prostacyclin (PGI2) synthetase inhibition in vitro (isometric tension of rabbit aorta strip); assay type: biochemical; conditions: pig aorta microsomes; PGH2 substrate, 30 sec, 22° C; 5 min pre-incubation; read-out: Molar concentration causing 50% inhibition of PGI2 Synthetase
T2 construct: Pig aorta microsomes; from tissue; host or cells: pig aorta (microsomes)
T2 sequence (A0A5G2QT35 1-497): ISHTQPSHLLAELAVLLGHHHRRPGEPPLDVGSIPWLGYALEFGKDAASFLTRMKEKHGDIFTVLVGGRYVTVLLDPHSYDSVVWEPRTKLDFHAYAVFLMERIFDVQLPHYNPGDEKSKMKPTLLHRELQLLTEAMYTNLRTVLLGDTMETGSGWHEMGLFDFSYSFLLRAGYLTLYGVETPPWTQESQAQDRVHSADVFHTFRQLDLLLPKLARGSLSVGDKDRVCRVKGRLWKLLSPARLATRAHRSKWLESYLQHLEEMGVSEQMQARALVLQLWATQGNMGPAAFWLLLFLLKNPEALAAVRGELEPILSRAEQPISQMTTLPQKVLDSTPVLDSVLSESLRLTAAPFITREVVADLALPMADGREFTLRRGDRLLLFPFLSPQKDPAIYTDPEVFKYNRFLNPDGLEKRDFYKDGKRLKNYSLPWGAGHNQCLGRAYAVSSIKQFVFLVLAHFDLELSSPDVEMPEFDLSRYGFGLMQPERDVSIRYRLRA
Experimental: as §1
2. Prostacyclin (PGI2) Synthetase
Pig aorta microsomes (Nature, 1976, 263, 663) are incubated (30 sec.; 22° C.) with PGH2 produced as in 1) and aliquots bio-assayed as in 1. […] The test compound is then pre-incubated with the enzyme for 5 minutes, and its ability to prevent the decrease in tension is measured.
as §2

[3] = target: T2, Prostacyclin (PGI2) Synthetase; conditions: pre-incubation with pig aorta microsome enzyme; literature; cited from earlier work
[4] = tested on: human blood platelet aggregation; conditions: human blood platelets, variety of aggregating agents; literature; cited from earlier work
[5] = tested on: lethal effect of arachidonic acid injection; conditions: intravenous arachidonic acid; literature; cited from earlier work
[6] = tested on: cyclo-oxygenase enzyme; conditions: background statement; cited from earlier work
[7] = tested on: aggregation of platelets in the rat aorta; conditions: rats in vivo; literature; cited from earlier work
[8] = target: T3, Cyclo-oxygenase (Ovis aries, UniProt P05979); assay: Cyclo-oxygenase inhibition in vitro (isometric tension of rabbit aorta strip); assay type: biochemical; conditions: ram seminal vesicle microsomes; arachidonic acid 100 μM, 1 min, 22°; 5 min pre-incubation; read-out: Molar concentration causing 50% inhibition of Cyclo-oxygenase
T3 construct: Ram seminal vesicle microsomes; from tissue; host or cells: ram seminal vesicle (microsomes)
T3 sequence (P05979 25-600): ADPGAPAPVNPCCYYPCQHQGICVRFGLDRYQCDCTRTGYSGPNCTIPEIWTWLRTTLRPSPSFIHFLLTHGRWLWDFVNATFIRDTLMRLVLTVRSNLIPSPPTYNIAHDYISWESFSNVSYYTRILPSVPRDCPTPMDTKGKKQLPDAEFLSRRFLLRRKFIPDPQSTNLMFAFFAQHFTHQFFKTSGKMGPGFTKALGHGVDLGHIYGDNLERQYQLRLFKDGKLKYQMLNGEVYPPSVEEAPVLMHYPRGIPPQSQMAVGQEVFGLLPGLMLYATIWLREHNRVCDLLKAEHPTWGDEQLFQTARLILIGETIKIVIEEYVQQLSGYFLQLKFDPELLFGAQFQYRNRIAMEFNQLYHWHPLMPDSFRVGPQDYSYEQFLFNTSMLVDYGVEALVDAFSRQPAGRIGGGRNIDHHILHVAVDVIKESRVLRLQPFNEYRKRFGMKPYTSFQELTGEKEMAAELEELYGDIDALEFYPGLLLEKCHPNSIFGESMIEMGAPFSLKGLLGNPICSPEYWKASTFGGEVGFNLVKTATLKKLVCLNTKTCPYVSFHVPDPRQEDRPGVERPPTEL
Experimental: as §1
Ram seminal vesicle microsomes (Biochemistry, 1971, 10, 2372) are incubated with arachidonic acid (100 μM: 1 min.: 22°) to produce PGH2 and aliquots of the reaction mixture injected into a stream of Krebs-bicarbonate at 37° C. (containing a mixture of antagonists (Nature, 1978, 218, 1135) and indomethacin (Brit. J. Pharmacol., 1972, 45, 451)) which is superfusing a spirally-cut rabbit aorta strip (Nature, 1969, 223, 29). The ability of a compound to inhibit the enzyme is measured by comparing the increases in isometric tension produced by PGH2 in the absence of the test compound, and following pre-incubation of the enzyme with the test compound for 5 minutes.
as §2

SMILES	IC50 [1]	IC50 [2]	other results
O=C(c1ccccc1)n1cccc1Cn1ccnc1	4.9 nM	35000 nM	
CCOC(=O)c1ccc(Cn2cccc2Cn2ccnc2)cc1	2.4 nM	22000 nM	
CCCCCC(/C=C/C=C\C/C=C\C/C=C\CCCC(=O)O)OO (centres unmarked) [15-hydroperoxy-arachidonic acid]			prevention of the PGI2-induced decrease in tension (PGI2 synthetase inhibition) [3]: prevented completely
C=CCn1cccc1Cn1ccnc1 [CH2 CHCH2]	150 nM		
c1ccc(Cn2cccc2Cn2ccnc2)cc1	1700 nM		
CC(=O)Oc1ccccc1C(=O)O [aspirin]			inhibitory activity in vitro against aggregating agents [4]: show inhibitory activity in vitro; protection from the lethal effect of arachidonic acid injection [5]: protect the rabbit from the lethal effect of the injection; inhibition of the cyclo-oxygenase enzyme [6]: inhibit the cyclo-oxygenase enzyme
O=C1C(CC[S+]([O-])c2ccccc2)C(=O)N(c2ccccc2)N1c1ccccc1 (centres unmarked) [sulphinpyrazone]			inhibitory activity in vitro against aggregating agents [4]: show inhibitory activity in vitro; protection from the lethal effect of arachidonic acid injection [5]: protect the rabbit from the lethal effect of the injection; prevention of platelet aggregation in extra corporeal loop of the abdominal aorta [7]: prevent the aggregation of platelets
O=C(O)c1ccc(Cn2cccc2Cn2ccnc2)cc1	3.4 nM	100000 nM	IC50 [8]: > 100000 nM
c1cc(Cn2ccnc2)n(C2CCCCC2)c1	620 nM		
O=C(O)CCn1cccc1Cn1ccnc1 [CH2 CH2 CO2 H, 1-(2-Carboxyethyl)-2-(imidazol-1-ylmethyl)pyrrole]	180 nM		
c1ccc(-n2cccc2Cn2ccnc2)cc1	1.9 nM	6500 nM	

From patent publication US4259345A, “2-(Imidazol-1-ylmethyl)pyrroles” (Pfizer Inc., priority 1979, dated 1981)
